For 17 compounds, Ki results are on record in US8367695B2, “Condensed tetrahydroquinoline derivative and use thereof for medical purposes” (Mitsubishi Tanabe Pharma Corporation, priority 2007, dated 2013).

A value given as a limit tells only on which side of the number the result lay.

For orientation: Ki means the equilibrium dissociation constant of an inhibitor or competing ligand from its target.

The target of one assay is T1, human recombinant mineralocorticoid receptor (MR) (Homo sapiens, UniProt P08235).
T1 construct: made in house; host or cells: insect cell Sf9 (baculovirus)
T1 sequence (P08235 1-984): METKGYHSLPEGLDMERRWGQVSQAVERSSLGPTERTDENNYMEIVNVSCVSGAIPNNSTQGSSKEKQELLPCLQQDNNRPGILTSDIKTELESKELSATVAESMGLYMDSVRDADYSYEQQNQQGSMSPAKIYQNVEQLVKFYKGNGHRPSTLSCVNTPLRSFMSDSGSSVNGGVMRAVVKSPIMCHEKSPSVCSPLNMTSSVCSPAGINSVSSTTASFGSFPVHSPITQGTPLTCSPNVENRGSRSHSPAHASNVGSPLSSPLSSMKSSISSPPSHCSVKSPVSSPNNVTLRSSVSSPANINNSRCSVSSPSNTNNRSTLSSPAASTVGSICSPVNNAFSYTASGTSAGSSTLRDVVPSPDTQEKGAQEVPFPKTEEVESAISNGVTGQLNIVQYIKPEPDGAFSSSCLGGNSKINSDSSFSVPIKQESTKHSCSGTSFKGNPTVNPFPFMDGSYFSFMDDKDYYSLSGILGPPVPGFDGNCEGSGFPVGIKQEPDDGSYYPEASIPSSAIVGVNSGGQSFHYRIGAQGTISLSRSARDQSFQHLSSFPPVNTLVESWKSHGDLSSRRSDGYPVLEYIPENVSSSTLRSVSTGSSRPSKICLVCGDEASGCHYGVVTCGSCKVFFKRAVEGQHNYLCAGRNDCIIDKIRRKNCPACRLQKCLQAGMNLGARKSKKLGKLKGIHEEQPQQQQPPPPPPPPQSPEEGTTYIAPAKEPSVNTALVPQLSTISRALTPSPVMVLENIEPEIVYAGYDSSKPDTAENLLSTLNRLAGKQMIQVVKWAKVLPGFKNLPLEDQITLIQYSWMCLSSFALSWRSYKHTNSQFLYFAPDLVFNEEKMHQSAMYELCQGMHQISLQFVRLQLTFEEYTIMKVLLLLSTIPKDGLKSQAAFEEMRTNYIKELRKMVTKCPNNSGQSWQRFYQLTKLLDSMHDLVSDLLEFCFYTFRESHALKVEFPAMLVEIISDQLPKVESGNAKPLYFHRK
Kind of assay: Radioactive ligand binding test, MR cytosol, [3H]-Ald.
Details: not given
The text has this:
Radioactive Ligand Binding Test Using Cytosols of Human Glucocorticoids Receptor, Progesterone Receptor and Mineralocorticoid Receptor
The procedures described in Neuroimmunomodulation (1994, 1, p. 66-73) and Invest. Opthalmol. Vis. Sci. (1996, 37, p. 805-813) were modified and used. In brief, cytosol preparations of human recombinant glucocorticoids receptor (GR) and human recombinant progesterone receptor-B (PRB) were purchased from Invitrogen (Carlsbad, Calif.), and a cytosol preparation of human recombinant mineralocorticoid receptor (MR) was prepared by our company (Yokohama, JP). MR cDNA was cloned into a baculovirus expression vector and expressed in insect cell Sf9. The procedures described in J. Biol. Chem. (1991, 266, p. 18072-18081), Proc. Natl. Acad. Sci. USA (1991, 88, p. 10681-10685) and Bac-to-Bac (registered trade mark) Baculovirus Expression Systems technical manual (Invitrogen) were partly modified and used as the procedures for MR gene cloning up to preparation of recombinant receptor cytosol. [^3H]-Dexamethasone (Dex, specific activity 91.0 Ci/mmol) was purchased from GE Healthcare (Buckinghamshire, UK), and [^3H]-progesterone (Prog, specific activity 103 Ci/mmol) and [3H]-aldosterone (Ald, specific activity 87.9 Ci/mmol) were each purchased from PerkinElmer (Boston, Mass.). Polypropylene round-bottomed 96 well plate was obtained from ABgene (Epsom, UK). Dimethyl Sulfoxide (DMSO) and hydrochloric acid were obtained from Kanto Chemical (TOKYO, JP). Trizma Base (Tris), Bovine Serum Albumin (BSA) and Sodium tungstate dihydrate were obtained from Sigma Chemicals (St. Louis, Mo.). Dithiothreitol (DTT) and Dextran 70 were obtained from GE Healthcare (Buckinghamshire, UK). Glycerol was obtained from Junsei Chemical (TOKYO, JP). Norit® “SX-II” was obtained from Wako Pure Chemical Industries, Ltd. (Osaka, JP). MeltiLex™, A, Printed Filtermat A and Sample Bag were obtained from PerkinElmer (Boston, Mass.).
As a buffer for GR binding assay, 25 mM Tris-HCl (4° C., pH 7.4)/1 mM EDTA·2Na/1 mM DTT/0.1% BSA was prepared and used. As buffers for PRB and MR binding assay, 10 mM Tris-HCl (4° C., pH 7.4)/1 mM DTT/0.1% BSA/10% glycerol and 20 mM Tris-HCl (4° C., pH 7.4)/1 mM EDTA·2Na/10% glycerol/20 mM sodium tungstate were respectively prepared and used. As dextran-coated charcoal (DCC) for B/F separation, 0.75% Dextran 70/0.75% Norit® SX-II/10 mM Tris-HCl (4° C., pH 7.4) was prepared and used.
Compound storage solutions (5-20 mM) were prepared using DMSO. The storage solutions were diluted with DMSO to 0.1 mM (for GR) and 0.3 mM (for PRB and MR), and further diluted 20-fold with distilled water to give solutions. Then, the preparations were diluted to each concentration with 5% DMSO solution. 1% DMSO was present at the time of the binding assay.
In the case of MR binding assay, [^3H]-Ald (about 4 nM), MR cytosol (about 1 mg/mL concentration of total protein), a test compound and a binding buffer were mixed in a total volume of 50 μL, and the mixture was stood at 4° C. for 30 min or longer. A specific binding was defined to be the difference in the [^3H]-Ald binding between the presence and the absence of 1 μM unlabeled Ald.
After the reaction, 50 μL of DCC was added to each well and blended. Thereafter, the mixture was stood at 4° C. for 10 min. The plate was applied to high-speed cooling centrifuge under the conditions of 4° C., 2000 rpm, 5 min to perform B/F separation. A given amount of the supernatant was recovered, which was spotted on Filtermat A of 96 well format (PerkinElmer) and rapidly dried at a high temperature. Then, solid scintillator MeltiLex A (PerkinElmer) was melted on Filtermat A. The mixture was placed in a Sample Bag (PerkinElmer), and the level of radioactivity was measured by plate reader 1450 Micro Beta TRILUX (PerkinElmer).
Measurement of Inhibition Constant (Ki)
Regarding `CC1(C)Nc2c(cc(-c3cccc4ncccc34)c3c2CCC3)C(C)(C)C1=O` [Example 20, 2,2,4,4-tetramethyl-6-(quinolin-5-yl)-2,3,4,7,8,9-hexahydro-1H-cyclopenta[h]quinolin-3-one], the Ki is above 1000 nM.
`CC#CCC1(C)C(=O)C(C)(C)Nc2c1cc(-c1cccc3nccn13)c1c2CCC1` (centres unmarked) [Example 63, 4-(2-butynyl)-6-(imidazo[1,2-a]pyridin-5-yl)-2,2,4-trimethyl-2,3,4,7,8,9-hexahydro-1H-cyclopenta[h]quinolin-3-one]: the Ki is above 1000 nM.
On the same count and under the same terms, then `Cc1noc(C)c1-c1cc2c(c3c1CCC3)NC(C)(C)C(=O)C2(C)C` [Example 2, 6-(3,5-dimethylisoxazol-4-yl)-2,2,4,4-tetramethyl-2,3,4,7,8,9-hexahydro-1H-cyclopenta[h]quinolin-3-one], with above 1000 nM; and `C=CCC1(C)C(=O)C(C)(C)Nc2c1cc(-c1cccc3cc[nH]c13)c1c2OCO1` (centres unmarked) [Example 78, 6-allyl-4-(1H-indol-7-yl)-6,8,8-trimethyl-6,7,8,9-tetrahydro-[1,3]dioxolo[4,5-h]quinolin-7-one], with above 1000 nM; and `Cc1noc(C)c1-c1cc2c(c3c1OCO3)NC(C)(C)C(=O)C2(C)C` [Example 69, 4-(3,5-dimethylisoxazol-4-yl)-6,6,8,8-tetramethyl-6,7,8,9-tetrahydro-[1,3]dioxolo[4,5-h]quinolin-7-one], with above 1000 nM.
For `C=CCC1(C)C(=O)C(C)(C)Nc2c1cc(-c1c(C)noc1C)c1c2CCC1` (centres unmarked) [Example 51, 4-allyl-6-(3,5-dimethylisoxazol-4-yl)-2,2,4-trimethyl-2,3,4,7,8,9-hexahydro-1H-cyclopenta[h]quinolin-3-one], the Ki is above 1000 nM.
In the case of `CC1(C)Nc2c(cc(-c3ccnc4ncccc34)c3c2CCC3)C(C)(C)C1=O` [Example 21, 2,2,4,4-tetramethyl-6-([1,8]naphthyridin-4-yl)-2,3,4,7,8,9-hexahydro-1H-cyclopenta[h]quinolin-3-one], the Ki was above 1000 nM.
For `CC1(C)Nc2c(cc(-c3cccc4nncn34)c3c2CCC3)C(C)(C)C1=O` [Example 17, 2,2,4,4-tetramethyl-6-([1,2,4]triazolo[4,3-a]pyridin-5-yl)-2,3,4,7,8,9-hexahydro-1H-cyclopenta[h]quinolin-3-one], the Ki is above 1000 nM.
Same read-out and setting: then `C=C1C(C)(C)Nc2c(cc(-c3c(C)ncn3C)c3c2CCC3)C1(C)C` [Example 29, 6-(3,5-dimethyl-3H-imidazol-4-yl)-2,2,4,4-tetramethyl-3-methylene-2,3,4,7,8,9-hexahydro-1H-cyclopenta[h]quinoline], with above 1000 nM; and `CC1(C)Nc2c(cc(-c3cccc4nccn34)c3c2OC(F)(F)O3)C(C)(C)C1=O` [Example 82, 2,2-difluoro-4-(imidazo[1,2-a]pyridin-5-yl)-6,6,8,8-tetramethyl-6,7,8,9-tetrahydro-[1,3]dioxolo[4,5-h]quinolin-7-one], with above 1000 nM; and `CC1(C)Nc2c(cc(-c3cccc4nccn34)c3c2CCC3)C(C)(C)C1=O` [Example 14, 6-(imidazo[1,2-a]pyridin-5-yl)-2,2,4,4-tetramethyl-2,3,4,7,8,9-hexahydro-1H-cyclopenta[h]quinolin-3-one], with above 1000 nM.
As for `C=CCC1(C)C(=O)C(C)(C)Nc2c1cc(-c1cccc3nccn13)c1c2CCC1` (centres unmarked) [Example 57, 4-allyl-6-(imidazo[1,2-a]pyridin-5-yl)-2,2,4-trimethyl-2,3,4,7,8,9-hexahydro-1H-cyclopenta[h]quinolin-3-one], the Ki is above 1000 nM.
Consider `C=CCC1(C)C(=O)C(C)(C)Nc2c1cc(-c1ccc(O)cc1C)c1c2CCC1` (centres unmarked) [Example 50, 4-allyl-6-(4-hydroxy-2-methylphenyl)-2,2,4-trimethyl-2,3,4,7,8,9-hexahydro-1H-cyclopenta[h]quinolin-3-one], for which the Ki was above 1000 nM.
Turning to `CC1(C)Nc2c(cc(-c3ccnc4cc[nH]c34)c3c2CCC3)C(C)(C)C1=O` [Example 13, 2,2,4,4-tetramethyl-6-(1H-pyrrolo[3,2-b]pyridin-7-yl)-2,3,4,7,8,9-hexahydro-1H-cyclopenta[h]quinolin-3-one], the Ki was above 1000 nM.
Take `CC1(C)Nc2c(cc(-c3cccc4nccn34)c3c2OCO3)C(C)(C)C1=O` [Example 71, 4-(imidazo[1,2-a]pyridin-5-yl)-6,6,8,8-tetramethyl-6,7,8,9-tetrahydro-[1,3]dioxolo[4,5-h]quinolin-7-one]: the Ki is above 1000 nM.
As for `CC1(C)Nc2c(cc(-c3cccc4ncccc34)c3c2OCO3)C(C)(C)C1=O` [Example 72, 6,6,8,8-tetramethyl-4-(quinolin-5-yl)-6,7,8,9-tetrahydro-[1,3]dioxolo[4,5-h]quinolin-7-one], the Ki was above 1000 nM.

Still in this assay, the particulars now being: [3H]-Ald about 4 nM, MR cytosol (Sf9), 4° C.; Cheng-Prusoff, Kd about 2.0 nM; read-out: MR (Ki: nM).
On to `CCC1(C)C(=O)C(C)(C)Nc2c1cc(-c1cccc3nccn13)c1c2CCC1` (centres unmarked) [Example 58, 4-ethyl-6-(imidazo[1,2-s]pyridin-5-yl)-2,2,4-trimethyl-2,3,4,7,8,9-hexahydro-1H-cyclopenta[h]quinolin-3-one], for which the Ki was above 1000 nM.
